# Reference: US20050158321A1, “Treatment of rheumatoid arthritis with galectin-3 antagonists” (Entelos, Inc., priority 2003, published 2005)
# Legend:
# [1] = system: arthritis induced by monoclonal antibodies raised against type II collagen, plus lipopolysaccharide; experiment: Inflammation, Collagen Arthritis, mAb in Mice (hind paw volume); assay type: in vivo, BALB/c mice
# Procedure: Galectin-3 Ab was evaluated for possible anti-inflammatory activity in BALB/c mice with arthritis induced by monoclonal antibodies (mAb) raised against type II Collagen, plus lipoplysaccharide. Galectin-3 Ab (1, 0.5 and 0.25 mg/mouse×3) was administered intraperitoneally once daily for 3 consecutive days starting on day 3. Volumes of both hind paws were measured on days 5, 7, 10, 14 and 17 and the sum of both hind paw volumes was calulated. A 30% percent or more reduction (−30%) relative to the vehicle-treated group indicates significant.
# Galectin-3 Ab, B2C10 from Pharmingen, was dissolved in distilled water. Test substance at 1, 0.5 and 0.25 mg/mouse and vehicle were each administered intraperitoneally once daily for 3 consecutive days starting on day 3. The dosing volume was 0.2 ml/mouse for the test compound or 10 ml/kg (PO) for indomethacin. All treatments are summarized below:
# Collagen Arthritis, mAb Groups of 7 BALB/c strain mice, 6-7 weeks of age, were used for the induction of arthritis by monoclonal antibodies (mAbs) raised against type II collagen, plus lipopolysaccharide (LPS). A combination of 4 different mAbs (D8, F10, DI-2G and A2) totaling 4 mg/mouse was administered to the animals intravenously on day 0, followed by intravenous challenge with […] of LPS 72 hours later (day3). From one hour after LPS injection, Galectin-3 Ab (1, 0.5 and 0.25 mg/mouse) and vehicle were each administered intraperitoneally once daily for 3 consecutive days starting on day 3. Whereas, indomethacin which served as the positive control was administered orally (3 mg/kg) once daily for 3 consecutive days at the same time schedule as test compound. For each animal, volumes of both hind paws were measured using a plethysmometer with water cell (12 mm diameter) on Days 0, 5, 7, 10, 14 and 17. Percent inhibition of increase in volume was calculated by the following formula: Inhibition (%): [1−(Tn−T0)/(Cn−C0)]×100% • Where: • C0 (Cn): volume of day 0 (day n) in vehicle control • T0 (Tn): volume of day 0 (day n) in test compound-treated group.
# Reduction of edema in the hind paws by 30% or more (^3 30%) is considered significant. In addition, body weight was documented during the testing period of day 0, 5, 7, 10, 14 and 17 in each animal percentage of body weight of each compound group at time points were calculated referring to the vehicle control group at each measurement day as 100%.
# [2] = system: peripheral blood monocytes from healthy donors and rheumatoid arthritis patients; experiment: Monocyte chemotaxis assay (96-well chemotaxis plates); assay type: cell-based, human; settings: for migration of monocytes in combination with galectin-3: FIG. 14B, 14C
# Procedure: Peripheral blood mononuclear cells (PBMCs) were isolated from 6 healthy volunteer donors and 6 rheumatoid arthritis (RA) patients following informed consent and in accordance with protocols approved by the AMC Medical Ethics committee. Donor blood was diluted with cold PBS and PBMCs isolated by centrifugation over Ficoll. The PBMC layer was recovered and washed twice with PBS. Cells were counted, and monocytes isolated using a Dynal monocytes negative isolation kit as per the manufacturer's instructions. Monocytes were resuspended at 2×10^6 cells/ml in RPMI medium containing 0.5% fetal calf serum.
# Chemotaxis assays were performed using 96-well disposable chemotaxis plates (Neuroprobe, 8 μm diameter pore size). Wells were preincubated for 1 hour at 37° C. with medium alone (RPMI containing 0.5% fetal calf serum), murine anti-human galectin-3 antibody B2C10 (0.1, 1 or 3 μg/ml) or lactose (10 mM). Lactose is a non-specific inhibitor of galectin-3. Purified recombinant human galectin-3 (1, 10 or 100 nM) was also included in the preincubation step. 5×10^4 monocytes obtained from healthy donors were added to the top of the filter in triplicate wells and cells allowed to migrate for 90 minutes at 37° C. The filter was then washed with PBS, and adhering non-migrating cells removed from the top of the filter by wiping. Migrating cells within the filter Were visualized by staining with crystal violet solution and washing with water. Following air-drying overnight, a computer digital imaging analyzer was used to capture 20 high-powered (400× magnification) fields encompassing the complete transwell filter, and migrating cells counted manually. FIG. 12 provides the relative amount migration (chemotaxis) in the presence of varying levels of galectin-3 and inhibitors of galectin-3 activity (B2C10 and lactose).
# In a second experiment, wells were preincubated for 1 hour at 37° C. with medium alone (RPMI containing 0.5% fetal calf serum), murine anti-human galectin-3 antibody B2C10 (0.1, 1 or 3 μg/ml) or lactose (10 mM). Lactose is a non-specific inhibitor of galectin-3. Purified recombinant human galectin-3 (1, 10 or 100 nM) was also included in the preincubation step. 5×10^4 monocytes obtained from rheumatoid arthritis patients were added to the top of the filter in triplicate wells and cells allowed to migrate for 90 minutes at 37° C. The filter was then processed as described above and migrating cells were counted manually. […]
# Monocytes from 6 rheumatoid arthritis patient were stimulated with 6 different synovial fluids and monocyte chemotaxis was measured as described above in the presence of different concentrations of galectin-3 blocking antibody. […]
# rheumatoid arthritis = settings: methotrexate treatment, known effect; cited from earlier work
compound,measurement,setting,value
"COc1ccc2c(c1)c(CC(=O)O)c(C)n2C(=O)c1ccc(Cl)cc1 [Indomethacin, indomethacin]",(%) Reduction of Edema vs. Vehicle Control,"[1]; Day 5, PO 3 mg/kg × 3, parenthesis = significant",(94) %
same,(%) Reduction of Edema vs. Vehicle Control,"[1]; Day 5, PO 3 mg/kg × 3, parenthesis = significant, listed as indomethacin",94%
same,(%) Reduction of Edema vs. Vehicle Control,"[1]; Day 7, PO 3 mg/kg × 3, parenthesis = significant",(70) %
same,(%) Reduction of Edema vs. Vehicle Control,"[1]; Day 7, PO 3 mg/kg × 3, parenthesis = significant, listed as indomethacin",70%
same,(%) Reduction of Edema vs. Vehicle Control,"[1]; Day 10, PO 3 mg/kg × 3, parenthesis = significant",(85) %
same,(%) Reduction of Edema vs. Vehicle Control,"[1]; Day 10, PO 3 mg/kg × 3, parenthesis = significant, listed as indomethacin",85%
same,(%) Reduction of Edema vs. Vehicle Control,"[1]; Day 14, PO 3 mg/kg × 3, parenthesis = significant",(85) %
same,(%) Reduction of Edema vs. Vehicle Control,"[1]; Day 14, PO 3 mg/kg × 3, parenthesis = significant, listed as indomethacin",85%
same,(%) Reduction of Edema vs. Vehicle Control,"[1]; Day 17, PO 3 mg/kg × 3, parenthesis = significant",(84) %
same,(%) Reduction of Edema vs. Vehicle Control,"[1]; Day 17, PO 3 mg/kg × 3, parenthesis = significant, listed as indomethacin",84%
"SDF-1: Stromal cell-Derived Factor-1, chemotactic cytokine",migration of monocytes in combination with galectin-3,[2]; single healthy donor,induce migration
Galectin-3: purified recombinant human galectin-3,"induction of chemotactic activity, alone","[2]; healthy donor or RA peripheral blood monocytes, 1, 10 or 100 nM",does not reproducibly induce chemotactic activity
same,monocyte chemotaxis in the presence of 1 ng/ml fMLP,"[2]; single healthy donor, FIG. 14A",increases monocyte chemotaxis in a concentration dependent manner
"MCP-1: Monocyte Chemotactic Protein-1, chemotactic cytokine",migration of monocytes in combination with galectin-3,[2]; single healthy donor,induce migration
"CN(Cc1cnc2nc(N)nc(N)c2n1)c1ccc(C(=O)N[C@@H](CCC(=O)O)C(=O)O)cc1 [Methotrexate, methotrexate]",decrease of synovial cell density,rheumatoid arthritis,approximately 30%
same,decrease of the concentration of IL-6 in synovial tissue,rheumatoid arthritis,93%
same,decrease of the rate of cartilage degradation,rheumatoid arthritis,approximately 15%
